According to US7348306B2, “Composition for promoting lacrimal secretion” (Fuso Pharmaceutical Industries, Ltd., priority 1999, dated 2008):
Where no end group is shown, it is not given here.

System: rat lacrimal secretion
Assay: Rat lacrimal secretion in vivo, Schirmer test paper, after intravenous administration of PAR-associated peptides
Conditions: male Wistar rat
Description: An amount of lacrimal fluid may be measured according to the known method such as a method of Iga et al. using a rat (Iga, Y. et al., Jpn. J. Pharmacol., 78, 373-80, 1998). In particular, a rat is anesthetized with pentobarbital (50 mg/kg, intraabdominal administration), and a paper with 2 mm width for testing the human lacrimal secretion function, the Schirmer test paper (Showa Yakuhin Kako Co., Ltd.) is inserted into a lower eyelid of the rat. After a period of time fixed has passed, the test paper is removed, and a length of the wetted portion of the test paper is measured using a caliper square.
Male Wistar-line rat at 6 weeks of age was used in experiments. Each animal was housed for one week under the environment of room temperature of 23±2° C., a humidity of 50±5% and a 12 hours light/dark cycle (light: 07:00-19:00) and, thereafter, it was subjected to experiments. During the housing and experiment period, the animal was fed a solid chow and water ad lib.
Four animals were used in Examples 3-4, and the results thereof are shown in the mean±S.E.M. The test of significance was performed according to a Tukey's multiple comparison test.
An amount of rat lacrimal fluid was measured according to the method of Iga et al. (Iga, Y. et al., Jpn. J. Pharmacol., 78, 373-80, 1998). That is, the rat was anesthetized with pentobarbital (50 mg/kg, intraabdominal administration), and a paper with 2 mm width for testing human lacrimal secretion function, the Schirmer test paper (Showa Yakuhin Kako Co., Ltd.) was inserted into a lower eyelid of the rat. After the period of time fixed has passed, the test paper was removed, and a length of a wetted portion of the test paper was measured using a caliper square. An amount of lacrimal fluid was measured at 1, 2, 4, 6, 8 and 10 minutes after intravenous administration of a solvent or PAR-associated peptides.
An amount of lacrimal fluid was measured as described in Example 3.

[1] = 5 μmol/kg intravenously, peptide alone, Example 3 (FIG. 1)

Substance | effect on rat lacrimal secretion (5 μmol/kg intravenously, Example 4 (FIG. 2), vs solvent-administrated group) | effect on lacrimal secretion (length of wetted portion of Schirmer test paper) [1] | time of peak of lacrimal secretion promotion after intravenous administration [1] [min] | dose-dependency of rat lacrimal secretion promoting action (1 to 5 μmol/kg intravenously, Example 4 (FIG. 2), vs solvent) | lacrimal secretion 8 and 10 minutes after combined treatment with amastatine, as compared with SLp-NH2 alone (SLp-NH2 5 μmol/kg i.v. with amastatine 2.5 μmol/kg i.v. 1 minute before, P<0.01 vs SLp-NH2 (Tukey test)) | persistence of lacrimal secretion promoting action in combined treatment with amastatine (SLp-NH2 5 μmol/kg i.v. with amastatine 2.5 μmol/kg i.v. 1 minute before, compared with SLp-NH2 alone)
Leu-Arg-Gly-Ile-Leu-Ser-NH2 (LRGILS-NH2) [LRp-NH2, designed control peptide, C-terminal amidated, reference compound] | no effect |  |  |  |  | 
Ser-Leu-Ile-Gly-Arg-Leu-NH2 (SLIGRL-NH2) [SLp-NH2] |  | significant promotion of lacrimal secretion | 1 | promoted the rat lacrimal secretion in doses of ranging from 1 to 5 μmol/kg in a dose-dependent manner | significant promotion of lacrimal secretion | more persistent than that of SLp-NH2 alone
